Source: US20240216476A1, “COMBINATION OF BITTER RECEPTOR AGONIST AND GUT-SIGNALING COMPOUND” (AARDVARK THERAPEUTICS, INC., priority 2021, published 2024)
Like-named read-outs stand apart in the source and are kept apart here. Marks after values point to notes of the source that are not given here.

Assays:
[1] = cited from earlier work; for Effect on Body Weight (placebo-adjusted change from baseline) / Effect on HbA1c (placebo-adjusted change from baseline) / Effect on Body Weight (placebo-adjusted change from baseline), percent: QD 24-26 weeks
[2] = test system: C57Bl/6J mice fed with high-fat diet; conditions: sitagliptin 0.004% in diet 12 weeks; vildagliptin 30 mg/kg/day 7 weeks; alogliptin 0.03% (wt/wt) in diet for life span; cited from earlier work
[3] = test system: high-fat diet-induced obese (DIO) mice; assay type: in vivo; conditions: in words; for high-density lipoprotein (HDL) levels: vs vehicle controls
Description: This Example provides the results from an in vivo study of denatonium acetate and sitagliptin in high-fat diet-induced obese (DIO) mice. C57BL/6NTac mice (at least 12 weeks of age) were fed with a high fat diet. All mice were dosed orally by gavage as (a) Vehicle group (N=15) dosed with distilled water BID, (b) DA group (N=15) dosed at 75 mg/kg (denatonium weight) BID; (c) sitagliptin group (N=15) dosed by gavage with 10 mg/kg QD; and (d) DA+ sitagliptin group (N=15) treated with DA at 75 mg/kg (denatonium based weight) BID and sitagliptin at 10 mg/kg by gavage QD. The groups were dosed for 8 weeks followed by a 5-7 day […] period. Body weight and body weight changes were measured three times per week. Serum biomarker levels for blood glucose (after fasting 6-8 hours), blood insulin, percentage of blood HvA1c, HDL, LDL, total triglycerides (TG), total cholesterol (TC) and bile acid were measured twice during the study at day 28 and at the end (day 56) of the study. Cumulative food intake and water consumption for each animal was measured.

ob/ob mice = conditions: sitagliptin 0.0018% in diet 12 weeks; alogliptin 42.2 mg/kg/day 28 days; cited from earlier work
[4] = 18 weeks, on metformin; saxagliptin 5 mg daily; sitagliptin 100 mg; cited from earlier work
[5] = in words; cited from earlier work
NASH in vivo models = assay: NASH in vivo models, summary and comparison of data from multiple studies (Table 15; first row Aardvark Therapeutics, PCT/US2022/014550); conditions: Male C57BL/6 mice fed AMLN diet for 48 weeks; 30 mg/kg, PO, QD for 48 weeks
Text: FIGS. 23 through 33B show data from this Example 6, which is further described above under the heading, Brief Description of the Figures. A summary and comparison of NASH in vivo data from multiple studies is shown below in Table 15. [table] […] This makes it difficult to do direct comparisons of the data. The study corresponding to the first row (called Aardvark Therapeutics) is provided in PCT Patent application PCT/US2022/014550, filed Jan. 31, 2022.

[6] = side effect incidence; cited from earlier work
[7] = semaglutide 3 mg, sitagliptin 100 mg, saxagliptin 2.5 mg, vildagliptin 50 mg, alogliptin 12.5 mg, linagliptin 5 mg
[8] = semaglutide 7 mg, sitagliptin 200 mg, saxagliptin 5 mg, vildagliptin 100 mg, alogliptin 25 mg
[9] = sitagliptin alone or in combination compared with controls, meta-analysis results

N[C@@H](CC(=O)N1CCn2c(nnc2C(F)(F)F)C1)Cc1cc(F)c(F)cc1F [Sitagliptin, (2R)-4-oxo-4-[3-(trifluoromethyl)-5,6-dihydro[1,2,4]triazolo[4,3-a]pyrazin-7(8H)-yl]-1-(2,4,5-trifluorophenyl)butan-2-amine]
Effect on Body Weight (placebo-adjusted change from baseline) [1, 7]: 100 mg: +0.9 kg
Effect on HbA1c (placebo-adjusted change from baseline) [1, 7]: 100 mg: −0.79%
Effect on Body Weight (placebo-adjusted change from baseline), percent ([1]; semaglutide 3 mg, sitagliptin 100 mg, saxagliptin 2.5 mg, vildagliptin 50 mg): (+1.1%)
Effect on Body Weight (placebo-adjusted change from baseline) [1, 8]: 200 mg: +1.0 kg
Effect on HbA1c (placebo-adjusted change from baseline) [1, 8]: 200 mg: −0.94%
Effect on Body Weight (placebo-adjusted change from baseline), percent ([1]; semaglutide 7 mg, sitagliptin 200 mg, saxagliptin 5 mg, vildagliptin 100 mg): (+1.2%)
HDL-C, weighted mean difference (WMD) [1, 9]: 0.05 mmol/L) ^$$$
serum TG, weighted mean difference [WMD] [1, 9]: [WMD] −0.24 mmol/L
Control-adjusted Percent Change in Body Weight Gain [2]: −45.8%*
Control-adjusted Percent Change in Fasting Blood Glucose [2]: −20.9%*
Control-adjusted Percent Change in Insulin Level [2]: −41.7%
high-density lipoprotein (HDL) levels ([3]; FIG. 22A): significantly decreased high-density lipoprotein (HDL) levels
high-density lipoprotein (HDL) levels ([3]; day 56 (FIG. 22B)): significantly decreased high-density lipoprotein (HDL) levels
weight loss ([3]; 56-day study summary): no weight loss effect was seen with longer duration dosing
effect on body weight (relative body weight percentage and relative body weight change) ([3]; DA 75 mg/kg BID, sitagliptin 10 mg/kg QD by gavage, 8 weeks): least effect on body weight
Control-adjusted Percent Change in Fasting Blood Glucose (ob/ob mice): −23.4%*
Control-adjusted Percent Change in Insulin Level (ob/ob mice): +148%*
Control-adjusted Percent Change in TG Level (ob/ob mice): −43.2%*
reductions in hemoglobin A1c (HbA1c) [4]: −0.26%
excretion and metabolism [5]: renally excreted with minimal liver metabolism (via CYP3A4 and CYP2C8)

CC(=O)[O-].CC[N+](CC)(CC(=O)Nc1c(C)cccc1C)Cc1ccccc1 [DA or ARD-101]
serum level of ALT, change (NASH in vivo models): ALT (−43%), AST
serum level of AST, change (NASH in vivo models): (−9.5%), and bile acid
serum level of HbAlc, change (NASH in vivo models): −6.7%
serum level of bile acid, change (NASH in vivo models): (−16.2%)
serum level of fasting glucose, change (NASH in vivo models): −9%
serum levels of GLP-1 and GLP-2 (NASH in vivo models): Increased serum levels
serum levels of inflammatory markers (NASH in vivo models): Lowered serum levels
steatosis and fibrosis on histopathology (NASH in vivo models): Significantly improved

CC[C@H](C)[C@H](NC(=O)[C@H](Cc1ccccc1)NC(=O)[C@H](CC(=O)O)NC(=O)[C@H](CCCNC(=N)N)NC(=O)[C@H](C)NC(=O)[C@H](C)NC(=O)[C@H](CC(C)C)NC(=O)[C@H](CC(N)=O)NC(=O)[C@H](CC(=O)O)NC(=O)[C@H](CC(C)C)NC(=O)[C@@H](NC(=O)[C@@H](NC(=O)[C@H](CC(N)=O)NC(=O)[C@H](CCSC)NC(=O)[C@H](CCC(=O)O)NC(=O)[C@H](CC(=O)O)NC(=O)[C@H](CO)NC(=O)[C@H](Cc1ccccc1)NC(=O)[C@H](CO)NC(=O)CNC(=O)[C@H](CC(=O)O)NC(=O)CNC(=O)[C@@H](N)Cc1c[nH]cn1)[C@@H](C)O)[C@@H](C)CC)C(=O)N[C@@H](CC(N)=O)C(=O)N[C@@H](Cc1c[nH]c2ccccc12)C(=O)N[C@@H](CC(C)C)C(=O)N[C@H](C(=O)N[C@@H](CCC(N)=O)C(=O)N[C@H](C(=O)N[C@@H](CCCCN)C(=O)N[C@H](C(=O)N[C@H](C(=O)N[C@@H](CC(=O)O)C(=O)O)[C@@H](C)O)[C@@H](C)CC)[C@@H](C)O)[C@@H](C)CC [teduglutide]
injection site reaction [6]: 13%
intestinal stoma complication [6]: 42%
upper respiratory tract infection [6]: 21%
